Key:
[1] = target: bovine serum albumin (BSA) (Bos taurus, UniProt P02769); test: Inhibition of the formation of AGEs in a BSA/reducing sugar solution, measured by fluorescence; format: biochemical; conditions: fluorescence versus positive control 1.5 mM aminoguanidine
Experimental: The preparation of a solution containing a protein and a reducing sugar was carried out extemporaneously as follows: a solution of bovine serum albumin (BSA) at a concentration between 1.5 μM and 1.5M, preferably between 15 μM and 500 μM, was incubated with a solution of a reducing sugar such as glucose, fructose, ribose, etc., preferably with glucose, at a concentration between 0.1M and 10M, preferably between 0.5M and 5M. […]
The protein/reducing sugar solution prepared in 1 was incubated with or without (negative control) the presence of an extract obtained in 2, at a temperature between 40 and 60° C., preferably at around 50° C. for 1 to 5 weeks, preferably for 3 weeks. The active substances obtained by extraction according to the protocol described in paragraph 2—extracts were tested at a concentration between 0.001 and 10%, preferably between 0.01 and 5% and more particularly at 1% by weight in the protein/reducing sugar preparation. The positive control used was aminoguanidine at a concentration between 15 μM and 150 mM, preferably at a concentration between 1.5 mM and 15 mM in water. The measure of the inhibition of the AGEs was carried out by measuring the fluorescence (excitation wavelength between 350 and 375 nm, preferably at 355 nm; emission wavelength between 420 and 450 nm, preferably at 430 nm). The inhibition was calculated by deducing the resulting value of the interaction of the plant extracts with the molecules of the reaction medium (quenching).
The preparation of a protein/reducing sugar solution was carried out according to the method described in Example 1 (paragraph 1). The molecules were tested at a concentration between 1×10^−7 and 1×10^−1%, and preferably between 1×10^−5 and 1×10^−1%, and in particular at 1×10^−1%, for example in water or in DMSO.

[2] = kidneys; cited from earlier work
[3] = characterized molecules, in particular at 1×10^−1% in water or DMSO, BSA/reducing sugar
[4] = Example 4, comparison with anthocyanins of the prior art, quenching taken into account

Sequence of bovine serum albumin (BSA) (P02769 25-607): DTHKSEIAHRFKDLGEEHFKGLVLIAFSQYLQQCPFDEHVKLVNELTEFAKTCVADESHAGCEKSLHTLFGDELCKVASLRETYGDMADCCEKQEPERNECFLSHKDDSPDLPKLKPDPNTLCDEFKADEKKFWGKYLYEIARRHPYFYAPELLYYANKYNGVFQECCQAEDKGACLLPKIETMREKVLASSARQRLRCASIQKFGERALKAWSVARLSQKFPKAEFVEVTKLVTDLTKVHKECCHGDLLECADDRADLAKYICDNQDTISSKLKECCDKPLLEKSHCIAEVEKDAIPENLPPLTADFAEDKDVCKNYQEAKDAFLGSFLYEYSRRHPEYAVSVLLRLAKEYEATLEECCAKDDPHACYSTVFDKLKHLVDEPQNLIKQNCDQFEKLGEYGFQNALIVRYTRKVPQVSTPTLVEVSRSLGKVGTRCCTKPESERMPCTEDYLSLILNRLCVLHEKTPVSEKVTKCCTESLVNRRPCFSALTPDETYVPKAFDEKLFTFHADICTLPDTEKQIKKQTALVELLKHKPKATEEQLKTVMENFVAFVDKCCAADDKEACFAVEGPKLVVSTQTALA

Structure (SMILES)	% inhibition [1, 3]	% inhibition [1, 4]	further results
O=C1C[C@@H](c2ccc(O)cc2)Oc2cc(O[C@@H]3O[C@H](CO)[C@@H](O)[C@H](O)[C@H]3O)cc(O)c21 [Prunin]	67.9%	–	–
COc1cc(-c2[o+]c3cc(O)cc(O[C@@H]4O[C@H](CO)[C@@H](O)[C@H](O)[C@H]4O)c3cc2O[C@@H]2O[C@H](CO)[C@@H](O)[C@H](O)[C@H]2O)cc(OC)c1O.[Cl-] [Malvin Chloride, reference compound]	–	0%	–
Nc1c(CO)ccc2c1C(=O)c1ccccc1C2=O [1-Amino-2-hydroxymethylanthraquinone]	66.0%	–	–
O=C([O-])c1ccccc1-c1c2cc(I)c(=O)c(I)c-2oc2c(I)c([O-])c(I)cc12.[Na+].[Na+] [Sodium erythrosine]	95.6%	–	–
OC[C@H]1O[C@@H](Oc2cc3c(O)cc(O)cc3[o+]c2-c2ccc(O)c(O)c2)[C@H](O)[C@@H](O)[C@@H]1O.[Cl-] [Kuromanin Chloride, reference compound]	–	0%	–
Oc1ccccc1O [Catechol]	88.3%	–	–
O=C1C=CC(=O)c2cc3ccccc3cc21 [1,4-Anthraquinone]	89.6%	–	–
OC[C@H]1O[C@@H](Oc2cc3c(O[C@@H]4O[C@H](CO)[C@@H](O)[C@H](O)[C@H]4O)cc(O)cc3[o+]c2-c2ccc(O)cc2)[C@H](O)[C@@H](O)[C@@H]1O.[Cl-] [Perlargonin chloride, reference compound]	–	0%	–
N=C(N)NN [Aminoguanidine]	–	–	reduction of the excretion of albumin in diabetics [2]: 90%
Nc1ccc(O)cc1 [4-Aminophenol]	78.5%	–	–
O=C(/C=C/c1ccc(O)cc1)c1ccccc1 [4-Hydroxychalcone]	81.4%	–	–
OC[C@H]1O[C@@H](Oc2cc3c(O)cc(O)cc3[o+]c2-c2ccc(O)c(O)c2)[C@H](O)[C@@H](O)[C@H]1O.[Cl-] [Idaein chloride, reference compound]	–	0%	–

Reference: patent US20100316743A1, “INHIBITION OF THE FORMATION OF AGEs” (BASF BEAUTY CARE SOLUTIONS FRANCE S.A.S., priority 2007, published 2010)
